Measured values reported in the supplement of paper PMC6045584.

Experiments:
Assay in all cases: area under dose-response curve of surviving fraction (unscaled, Aref=0) (surviving fraction x log10(nM)); higher = more resistant
Settings in all cases: exposure time: 5 days; dose range 0.5-1000 nM
[1] = compound: CCc1cc(Nc2nccc(-c3c(-c4ccc(OC)c(C(=O)Nc5c(F)cccc5F)c4)nc4ccccn34)n2)c(OC)cc1N1CCC(N2CCN(S(C)(=O)=O)CC2)CC1
In short: (§1)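 Tumour cell lines in 384-well plates were exposed to eight inhibitor concentrations, from 0.5 to 1000 nM, for five days, and viability was read by CellTiter-Glo luminescence in three screens per line. Signals were normalised to DMSO-only wells, and 3-parameter logistic regression in the drc R package fitted dose-response survival curves to the surviving fractions. Area under the curve is given as the unscaled activity area. That area is taken over log10 dose with Aref = 0.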

NILOTINIB = compound: Cc1cn(-c2cc(NC(=O)c3ccc(C)c(Nc4nccc(-c5cccnc5)n4)c3)cc(C(F)(F)F)c2)cn1 [NILOTINIB]
In short: as §1

CABOZANTINIB = compound: COc1cc2nccc(Oc3ccc(NC(=O)C4(C(=O)Nc5ccc(F)cc5)CC4)cc3)c2cc1OC [CABOZANTINIB]
In short: as §1

BMN-673 = compound: Cn1ncnc1[C@H]1c2n[nH]c(=O)c3cc(F)cc(c23)N[C@@H]1c1ccc(F)cc1 [BMN-673]
In short: as §1

[2] = compound: COc1ccc(-c2cc3c(C)nc(N)nc3n([C@H]3CC[C@H](OCCO)CC3)c2=O)cn1
In short: as §1

AFIMOXIFENE = compound: CC/C(=C(\c1ccc(O)cc1)c1ccc(OCCN(C)C)cc1)c1ccccc1 [AFIMOXIFENE]
In short: as §1

BEZ-235 = compound: Cn1c(=O)n(-c2ccc(C(C)(C)C#N)cc2)c2c3cc(-c4cnc5ccccc5c4)ccc3ncc21 [BEZ-235]
In short: as §1

BLEOMYCIN = compound: Cc1c(N)nc([C@H](CC(N)=O)NC[C@H](N)C(N)=O)nc1C(=O)N[C@H](C(=O)N[C@H](C)[C@@H](O)[C@H](C)C(=O)N[C@H](C(=O)NCCc1nc(-c2nc(C(=O)NCCC[S+](C)C)cs2)cs1)[C@@H](C)O)[C@@H](OC1OC(CO)C(O)C(O)C1OC1OC(CO)C(O)C(OC(N)=O)C1O)c1cnc[nH]1 [BLEOMYCIN]
In short: as §1

IMATINIB = compound: Cc1ccc(NC(=O)c2ccc(CN3CCN(C)CC3)cc2)cc1Nc1nccc(-c2cccnc2)n1 [IMATINIB]
In short: as §1

VORINOSTAT = compound: O=C(CCCCCCC(=O)Nc1ccccc1)NO [VORINOSTAT]
In short: as §1

MK-1775 = compound: C=CCn1c(=O)c2cnc(Nc3ccc(N4CCN(C)CC4)cc3)nc2n1-c1cccc(C(C)(C)O)n1 [MK-1775]
In short: as §1

[3] = compound: C[C@H](CN(C)C)Oc1nc(Nc2cc3cccc(Cl)c3cn2)cnc1C#N
In short: as §1

For HS57T LUNG, the “area under dose-response curve” value [1] was 3.36, the “area under dose-response curve” value (NILOTINIB) was 3.38 and the “area under dose-response curve” value (CABOZANTINIB) was 3.09. The “area under dose-response curve” value (BMN-673) was 2.92, the “area under dose-response curve” value [2] was 2.21 and the “area under dose-response curve” value (AFIMOXIFENE) was 3.68. For the same test system, the “area under dose-response curve” value (BEZ-235) was 1.94, the “area under dose-response curve” value (BLEOMYCIN) was 2.57 and the “area under dose-response curve” value (IMATINIB) was 3.57. The “area under dose-response curve” value (VORINOSTAT) was 3.16, the “area under dose-response curve” value (MK-1775) was 2.19 and the “area under dose-response curve” value [3] was 2.65.
